Drawing on US10227586B2, “Genome-originated artificial ncRNA expression library and method of preparing the same” (KOREA ADVANCED INSTITUTE OF SCIENCE AND TECHNOLOGY, priority 2016, dated 2019), this text covers OD600 and MIC for six molecules.

In brackets after ≈: the same amount, converted by molar mass.

In one series the test system is E. coli YHP05 strain. As to the kind of experiment: MIC measurement to cinnamaldehyde of E. coli. The note with it: LB liquid medium, 37° C., 16 hrs. The format is cell-based.
For a further series, the system named is E. coli MG1655 strain. The series can be described thus: microbe, parasite or virus in culture. The conditions noted are these: Escherichia coli, MG1655, 16 h, read-out: phenol concentration at which growth was totally inhibited (MIC).
The next series deals with E. coli YHP05. As to the kind of experiment: Screening of transformed E. coli living in cinnamaldehyde MIC (artificial ncRNA expression). The series is classed as cell-based. The note with it: transformed E. coli YHP05, LB medium comprising 350 ug/ml cinnamaldehyde, 1 mM IPTG, 16 hrs. On the procedure:
In order to develop an artificial ncRNA to make E. coli survived at 300 ug/ml of cinnamaldehyde concentration, E. coli YHP05 was transformed by the plasmid library which can express genome-originated artificial ncRNA constructed in the Example 3-5, and after transformed ˜500,000 colonies were cultured for 16 hrs, they were diluted to 1:100 and cultured for 16 hrs again in a LB medium comprising 350 ug/ml cinnamaldehyde, 1 mM IPTG, and the result was shown in FIG. 6 and table 6.

Take `O=CC=Cc1ccccc1` [cinnamaldehyde]: the OD600 with E. coli YHP05 strain (100 ug/ml cinnamaldehyde) is given as 3.08; in the series on E. coli YHP05 strain (150 ug/ml cinnamaldehyde), 2.74; in the series on E. coli YHP05 strain (200 ug/ml cinnamaldehyde), 2.25; with E. coli YHP05 strain (250 ug/ml cinnamaldehyde), 0.341; with E. coli YHP05 strain (300 ug/ml cinnamaldehyde), 0.091; with E. coli YHP05 strain (400 ug/ml cinnamaldehyde), 0.083. Moreover, in the series with E. coli YHP05 strain (500 ug/ml cinnamaldehyde), the OD600 is given as 0.062. Moreover, the MIC with E. coli YHP05 strain (Escherichia coli, YHP05STRAIN, read-out: cinnamaldehyde concentration at which cells were not grown (MIC)) came out at 300 µg/mL (≈ 2270 µM).

In the case of `Oc1ccccc1` [phenol], the MIC with E. coli MG1655 strain was 20 mM (≈ 1880 µg/mL).

In the case of “clone 8: artificial ncRNA improving resistance to cinnamaldehyde, genome insert of SEQ ID NO: 19 (DNA AATCCCTCAATGATGCCTGGAATCGCTCTTTTA; expressed or natural sequence)”, in the series on E. coli YHP05, the OD600 was 0.32.

In the series on E. coli YHP05, “clone 9: artificial ncRNA improving resistance to cinnamaldehyde, genome insert of SEQ ID NO: 20 (DNA GGCGCTGCATCCGCGTTATAGCCGCGCCCAGTATGACCGGGTAATGGA; expressed or natural sequence)” displayed an OD600 of 0.2403.

B1: clone 6: artificial ncRNA improving resistance to cinnamaldehyde, genome insert of SEQ ID NO: 17 (nucleic acid)
DNA: TATTCATTGCTTCTACCCGTGCCTCGCTTTCTGTATTACGAAATTGTCCCAACACATGTGCCAGCCGATAAAAACCCAC
modifications: expressed or natural sequence
As to B1, the OD600 in the series on E. coli YHP05 amounted to 0.2757.

B2: clone 7: artificial ncRNA improving resistance to cinnamaldehyde, genome insert of SEQ ID NO: 18 (nucleic acid)
DNA: AACGCAGGGCGTTCGAAAGCAGGTTGCTTAGCGCCCGACGCAGCATCAGCGGATCGCCCGCGACCTGACACTTGTCGCCAACAAACCGCAACTCCACGCCGCGATCTTCCGCTAACGCCTCGAAAAAATCGAACACTTTGCCGACTTCATCCGCCAG
modifications: cinnamic aldehyde_reg_06
B2 returned an OD600 in the series on E. coli YHP05 of 0.411.
